Experimental data reported in patent US10501414B2, “Indole analogs as 5-oxo-ETE receptor antagonists and method of use thereof” (THE ROYAL INSTITUTION FOR THE ADVANCEMENT OF …, priority 2015, dated 2019).
Values joined by “and” are separate entries in the source; they are usually repeats but may differ in a detail not shown here. Identical values can stand only once. Like-named read-outs stand apart in the source and are kept apart here.

Target: T1, OXE receptor (Homo sapiens, UniProt Q8TDS5)
T1 construct: Human granulocytes (≥95% neutrophils) are prepared from whole blood; endogenous in cells; host or cells: human granulocytes (≥95% neutrophils) from whole blood
T1 sequence (Q8TDS5 whole entry): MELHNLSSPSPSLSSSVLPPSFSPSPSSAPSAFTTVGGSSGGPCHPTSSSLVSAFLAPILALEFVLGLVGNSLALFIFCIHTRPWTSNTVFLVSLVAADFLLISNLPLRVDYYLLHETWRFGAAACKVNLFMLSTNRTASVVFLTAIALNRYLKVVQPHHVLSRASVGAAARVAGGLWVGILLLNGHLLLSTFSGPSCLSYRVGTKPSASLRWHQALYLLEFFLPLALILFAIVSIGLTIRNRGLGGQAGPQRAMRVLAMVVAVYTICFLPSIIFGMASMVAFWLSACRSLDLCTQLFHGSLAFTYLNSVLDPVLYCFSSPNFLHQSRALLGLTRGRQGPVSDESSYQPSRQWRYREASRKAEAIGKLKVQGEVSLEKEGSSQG
Experiment: Calcium mobilization in human granulocytes (inhibition of 5-oxo-ETE-induced calcium mobilization)
Type: cell-based
Experimental: Evaluation of Antagonist Activity: Calcium Mobilization in Human Granulocytes
Human granulocytes (≥95% neutrophils) are prepared from whole blood using Dextran 500 to remove red blood cells, followed by centrifugation over Ficoll-Paque to remove mononuclear cells and hypotonic lysis of any remaining red blood cells. After centrifugation the granulocytes are suspended in Ca^++/Mg^++-free phosphate-buffered saline (PBS^−). Granulocytes (10^7 cells/ml) are incubated with the acetoxymethyl ester of indo-1 (1 μM) for 30 min, followed by washing twice with PBS^− and resuspension in the same medium to obtain a final cell concentration of 3.22×10^6 cells/ml. Five minutes prior to commencing data acquisition, Ca^++ and Mg^++ are added to give final concentrations of 1.8 and 1 mM, respectively. Calcium measurements are performed at 37° C. using a spectrofluorometer equipped with a temperature-controlled cuvette holder and a magnetic stirrer. The excitation and emission wavelengths are 331 nm and 410 nm, respectively. Following stabilization of the baseline, fluorescence is measured for 1 min, prior to the addition of either vehicle or various concentrations of a potential 5-oxo-ETE antagonist. Two min later, 5-oxo-ETE (10 nM) is added, followed 1 min later by digitonin (final concentration 0.1%). Data acquisition is terminated after a further 0.5 min. Fmax is determined from fluorescence measurements after the addition of digitonin, whereas Fmin is determined after determination of autofluorescence as described in the literature. A dissociation constant of 250 nM for the indo-1/Ca^++ complex is used to calculate [Ca^++]i. The % inhibition of 5-oxo-ETE-induced calcium mobilization by the antagonist is calculated as follows: Inhibition (%)=(1−(Caant/Ca^++veh))×100 where Caant is the increase in cytosolic calcium levels induced by 5-oxo-ETE (10 nM) following the addition of a potential antagonist, whereas Caveh is the response induced by 5-oxo-ETE following addition of vehicle alone.

[1] = inhibition of calcium mobilization induced by 5-oxo-ETE (10 nM) in human granulocytes, bracketed figure in cell = n, read-out: IC50
[2] = 5-oxo-ETE-induced calcium mobilization, read-out: potency (IC50) in the picomolar range
[3] = 5-oxo-ETE-induced calcium mobilization

| SMILES | IC50 [1] [nM] | other results |
| --- | --- | --- |
| CC(CC(=O)O)CC(=O)c1c(CCCCc2ccccc2)n(C)c2ccc(Cl)cc12 (racemic) [Compound 13, methyl 5-(5-chloro-1-methyl-2-(4-phenylbutyl)-1H-indol-3-yl)-3-methyl-5-oxopentanoic acid] | 38 ± 8 | – |
| CC(CC(=O)O)CC(=O)c1c(CCCCCCc2cccc(Cl)c2)n(C)c2ccc(Cl)cc12 (racemic) [Compound 20, 5-(5-chloro-2-(6-(3-chlorophenyl)hexyl)-1-methyl-1H-indol-3-yl)-3-methyl-5-oxopentanoic acid] | 0.033 ± 0.003 | IC50 [2]: ~0.033 nM |
| CC(CC(=O)O)CC(=O)c1c(CCCCCCc2cccc(F)c2)n(C)c2ccc(Cl)cc12 (racemic) [Compound 21, 5-(5-chloro-2-(6-(3-fluorophenyl)hexyl)-1-methyl-1H-indol-3-yl)-3-methyl-5-oxopentanoic acid] | 0.072 ± 0.007 | IC50 [2]: ~0.072 nM |
| COc1cccc(CCCCCCc2c(C(=O)CC(C)CC(=O)O)c3cc(Cl)ccc3n2C)c1 (racemic) [Compound 22, 5-(5-chloro-2-(6-(3-methoxyphenyl)hexyl)-1-methyl-1H-indol-3-yl)-3-methyl-5-oxopentanoic acid] | 0.086 ± 0.017 | IC50 [2]: ~0.086 nM |
| C[C@H](CC(=O)O)CC(=O)c1c(CCCCCCc2ccccc2F)n(C)c2ccc(Cl)cc12 (single isomer, unassigned) [Compound 48] | 0.27 ± 0.06 | – |
| C[C@H](CC(=O)O)CC(=O)c1c(CCCCCCc2cccc(F)c2)n(C)c2ccc(Cl)cc12 (single isomer, unassigned) [Compound 51] | 0.037 ± 0.005 | – |
| COc1cccc(CCCCCCc2c(C(=O)C[C@H](C)CC(=O)O)c3cc(Cl)ccc3n2C)c1 (single isomer, unassigned) [Compound 52] | 0.051 ± 0.007 | – |
| C[C@@H](CC(=O)O)CC(=O)c1c(CCCCCCc2ccccc2Cl)n(C)c2ccc(Cl)cc12 (single isomer, unassigned) [Compound 62] | 81 ± 34 | – |
| C[C@@H](CC(=O)O)CC(=O)c1c(CCCCCCc2ccccc2F)n(C)c2ccc(Cl)cc12 (single isomer, unassigned) [Compound 63] | 2.9 ± 0.1 | – |
| COc1ccccc1CCCCCCc1c(C(=O)C[C@@H](C)CC(=O)O)c2cc(Cl)ccc2n1C (single isomer, unassigned) [Compound 64] | 54 ± 23 | – |
| C[C@@H](CC(=O)O)CC(=O)c1c(CCCCCCc2cccc(Cl)c2)n(C)c2ccc(Cl)cc12 (single isomer, unassigned) [Compound 65] | 0.64 ± 0.1 | – |
| C[C@@H](CC(=O)O)CC(=O)c1c(CCCCCCc2cccc(F)c2)n(C)c2ccc(Cl)cc12 (single isomer, unassigned) [Compound 66] | 1.8 ± 0.3 | – |
| COc1cccc(CCCCCCc2c(C(=O)C[C@@H](C)CC(=O)O)c3cc(Cl)ccc3n2C)c1 (single isomer, unassigned) [Compound 67] | 50 ± 13 | – |
| C[C@@H](CC(=O)O)CC(=O)c1c(CCCCCCc2ccc(F)cc2)n(C)c2ccc(Cl)cc12 (single isomer, unassigned) [Compound 69] | 4.45 ± 1.05 | – |
| CC(CC(=O)O)CC(=O)c1c(CCCc2ccccc2)n(C)c2ccc(Cl)cc12 (stereo not drawn) [Compound 12, 5-(5-chloro-1-methyl-2-(3-phenylpropyl)-1H-indol-3-yl)-3-methyl-5-oxopentanoic acid, reference compound] | 223 ± 18 | reduction of potency compared to V230 (relative to V230): about 8 fold |
| CC(CC(=O)O)CC(=O)c1c(CCCCCc2ccccc2)n(C)c2ccc(Cl)cc12 (stereo not drawn) [Compound 14, 5-(5-chloro-1-methyl-2-(5-phenylpentyl)-1H-indol-3-yl)-3-methyl-5-oxopentanoic acid] | 11 ± 1 | – |
| CC(CC(=O)O)CC(=O)c1c(CCCCCCc2ccccc2Cl)n(C)c2ccc(Cl)cc12 (stereo not drawn) [Compound 17, 5-(5-chloro-2-(6-(2-chlorophenyl)hexyl)-1-methyl-1H-indol-3-yl)-3-methyl-5-oxopentanoic acid] | 0.44 ± 0.13 | – |
| CC(CC(=O)O)CC(=O)c1c(CCCCCCc2ccccc2F)n(C)c2ccc(Cl)cc12 (stereo not drawn) [Compound 18, 5-(5-chloro-2-(6-(2-fluorophenyl)hexyl)-1-methyl-1H-indol-3-yl)-3-methyl-5-oxopentanoic acid] | 0.41 ± 0.07 | – |
| COc1ccccc1CCCCCCc1c(C(=O)CC(C)CC(=O)O)c2cc(Cl)ccc2n1C (stereo not drawn) [Compound 19, 5-(5-chloro-2-(6-(2-methoxyphenyl)hexyl)-1-methyl-1H-indol-3-yl)-3-methyl-5-oxopentanoic acid] | 0.18 ± 0.05 | – |
| CC(CC(=O)O)CC(=O)c1c(CCCCCCc2ccc(Cl)cc2)n(C)c2ccc(Cl)cc12 (stereo not drawn) [Compound 23, 5-(5-chloro-2-(6-(4-chlorophenyl)hexyl)-1-methyl-1H-indol-3-yl)-3-methyl-5-oxopentanoic acid] | 0.63 ± 0.22 | – |
| CC(CC(=O)O)CC(=O)c1c(CCCCCCc2ccc(F)cc2)n(C)c2ccc(Cl)cc12 (stereo not drawn) [Compound 24, 5-(5-chloro-2-(6-(4-fluorophenyl)hexyl)-1-methyl-1H-indol-3-yl)-3-methyl-5-oxopentanoic acid] | 0.8 ± 0.24 | – |
| COc1ccc(CCCCCCc2c(C(=O)CC(C)CC(=O)O)c3cc(Cl)ccc3n2C)cc1 (stereo not drawn) [Compound 25, 5-(5-chloro-2-(6-(4-methoxyphenyl)hexyl)-1-methyl-1H-indol-3-yl)-3-methyl-5-oxopentanoic acid] | 0.63 ± 0.08 | – |
| CC(CC(=O)O)CC(=O)c1c(CCCCCCc2cccc(O)c2)n(C)c2ccc(Cl)cc12 (stereo not drawn) [Compound 38, 5-(5-chloro-2-(6-(3-hydroxyphenyl)hexyl)-1-methyl-1H-indol-3-yl)-3-methyl-5-oxopentanoic acid] | 1.9 ± 0.3 | – |
| C[C@H](CC(=O)O)CC(=O)c1c(CCCCCCc2ccccc2Cl)n(C)c2ccc(Cl)cc12 [Compound 47, (S)-5-(5-chloro-2-(6-(2-chlorophenyl)hexyl)-1-methyl-1H-indol-3-yl)-3-methyl-5-oxopentanoic acid] | 0.55 ± 0.19 | – |
| COc1ccccc1CCCCCCc1c(C(=O)C[C@H](C)CC(=O)O)c2cc(Cl)ccc2n1C [Compound 49, (S)-5-(5-chloro-2-(6-(2-methoxyphenyl)hexyl)-1-methyl-1H-indol-3-yl)-3-methyl-5-oxopentanoic acid] | 0.1 ± 0.02 | – |
| COc1ccccc1CCCCCC(O)c1c(C(=O)C[C@H](C)CC(=O)O)c2cc(Cl)ccc2n1C (stereo partly drawn) [Compound 49M] | 0.58 ± 0.21 | antagonist activity / potency in words [3]: antagonists and 5-oxo-ETE-induced calcium mobilization inhibitors |
| C[C@H](CC(=O)O)CC(=O)c1c(C(O)CCCCCc2cccc(Cl)c2)n(C)c2ccc(Cl)cc12 (stereo partly drawn) [Compound 50M] | 0.08 ± 0.02 | – |
| C[C@H](CC(=O)O)CC(=O)c1c(CCCCCCc2ccc(Cl)cc2)n(C)c2ccc(Cl)cc12 [Compound 53, (S)-5-(5-chloro-2-(6-(4-chlorophenyl)hexyl)-1-methyl-1H-indol-3-yl)-3-methyl-5-oxopentanoic acid] | 0.47 ± 0.16 | – |
| C[C@H](CC(=O)O)CC(=O)c1c(CCCCCCc2ccc(F)cc2)n(C)c2ccc(Cl)cc12 [Compound 54, (S)-5-(5-chloro-2-(6-(4-fluorophenyl)hexyl)-1-methyl-1H-indol-3-yl)-3-methyl-5-oxopentanoic acid] | 0.39 ± 0.09 | – |
| C[C@H](CC(=O)O)CC(=O)c1c(C(O)CCCCCc2ccc(F)cc2)n(C)c2ccc(Cl)cc12 (stereo partly drawn) [Compound 54M] | 1.4 ± 0.4 | antagonist activity / potency in words [3]: antagonists and 5-oxo-ETE-induced calcium mobilization inhibitors |
